Where “and” joins values, the source holds several entries; their conditions need not be identical. Equal entries are not always repeated.
Assay: Solubility of the compound of formula (I-S) in toluene as a function of OPPh3 concentration
Type: physicochemical
Conditions: 21° C.

For `NS(=O)(=O)NC[C@H]1COc2cc(Cl)ccc2O1` [compound of formula (I-S), N-[[(2S)-6-chloro-2,3-dihydro-1,4-benzodioxin-2-yl]methyl]-sulfamide], which “Solubility (g/100 g toluene)” value (OPPH3 0.05 mol/L) is on record?
The value was 1.6 g/100 g toluene.

What about the “Solubility (g/100 g toluene)” value (OPPH3 0.10 mol/L) of the same compound?
The value was 2.3 g/100 g toluene.

What about the “Solubility (g/100 g toluene)” value (OPPH3 0.15 mol/L) of the same compound?
The value was 4.2 g/100 g toluene.

And the “Solubility (g/100 g toluene)” value (OPPH3 0.20 mol/L)?
The value was 5.9 g/100 g toluene and 5.0 g/100 g toluene.

What about the “Solubility (g/100 g toluene)” value (OPPH3 0.25 mol/L) of the same compound?
Its value is 6.0 g/100 g toluene.

And the “Solubility (g/100 g toluene)” value (OPPH3 0.30 mol/L)?
The value was 8.2 g/100 g toluene.

What about the “Solubility (g/100 g toluene)” value (OPPH3 0.40 mol/L) of the same compound?
Its value is 9.6 g/100 g toluene.

And the “Solubility, trend with OPPh3 concentration” value (OPPh3 0.05-0.40 mol/L)?
The value was “increases with increased OPPh3 concentration”.
